In PubChem BioAssay (NCI) one finds GI50 and TGI data, which are given here for 13 compounds.

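The compound was tested at five concentrations on cells cultured in 96-well plates, with a 48-hour exposure period. Abbreviation: GI50, concentration required for 50% inhibition of growth. TGI is the concentration that stops growth completely.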

Some test systems named below: HL-60(TB) leukemia; HT29 colon; KM12 colon; MDA-MB-231 breast; MOLT-4 leukemia; NCI-H226 lung; SF-268 CNS; SN12C renal; T-47D breast; UACC-257 melanoma.
Assay in all cases: growth of human tumour cells (NCI), 48 h

On to `COc1cc2ncnc(Oc3ccc(NC(=O)Nc4ccc(CN5CCOCC5)c(C(F)(F)F)c4)c4ccccc34)c2cc1OC`, for which the GI50 in the assay on HL-60(TB) leukemia was 0.502 µM; in the assay on HT29 colon, 0.547 µM; in the assay with KM12 colon, 0.199 µM; in the assay on MDA-MB-231 breast, 1.2 µM; in the assay on MOLT-4 leukemia, 0.199 µM; in the assay on NCI-H226 lung it was 0.264 µM. In addition, the GI50 in the assay on SF-268 CNS is 0.453 µM; with SN12C renal it was 0.292 µM; in the assay on T-47D breast, 0.477 µM; with UACC-257 melanoma, 0.964 µM. Also, the TGI came to 2.76 µM with HL-60(TB) leukemia; 10.3 µM with HT29 colon; 2.3 µM in the assay on KM12 colon; 6.32 µM with MDA-MB-231 breast; 2.08 µM with MOLT-4 leukemia; 16 µM with NCI-H226 lung. Moreover, the TGI in the assay with SF-268 CNS is 8.94 µM; in the assay on SN12C renal, 1.71 µM; in the assay on T-47D breast, 5.17 µM; in the assay on UACC-257 melanoma, 4.12 µM.
For the compound `CC(C)(C)NCC(O)c1ccccc1Cl` (stereo unspecified), the GI50 with HL-60(TB) leukemia, in the assay on HT29 colon, with KM12 colon, in the assay with MDA-MB-231 breast, in the assay on MOLT-4 leukemia and in the assay on NCI-H226 lung was over 100 µM each time. Besides, the GI50 in the assay on SF-268 CNS, with SN12C renal, in the assay on T-47D breast and in the assay on UACC-257 melanoma was over 100 µM throughout. Besides, the TGI with HL-60(TB) leukemia, in the assay on HT29 colon, in the assay with KM12 colon, with MDA-MB-231 breast, with MOLT-4 leukemia and in the assay on NCI-H226 lung was over 100 µM each time. The TGI in the assay with SF-268 CNS, in the assay on SN12C renal, with T-47D breast and with UACC-257 melanoma was over 100 µM throughout.
With `C=C1C(=O)O[C@@H]2/C=C(/C)[C@@H](OC(C)=O)C[C@@H](O)/C(C)=C\[C@@H](OC(=O)[C@]3(C)O[C@@H]3C)[C@@H]12`, the TGI in the assay with HL-60(TB) leukemia is 7.85 µM; with HT29 colon, 30.7 µM; in the assay on KM12 colon, 36.3 µM; with MDA-MB-231 breast it was 29.9 µM; in the assay with MOLT-4 leukemia, 20.7 µM; with NCI-H226 lung it was over 100 µM. For the same compound, the TGI in the assay on SF-268 CNS was 41.8 µM; with SN12C renal, 24.7 µM; with T-47D breast, 24.1 µM; in the assay on UACC-257 melanoma, 33.2 µM.
As for `Cc1cc2nc3c(C#N)c(C)c(CCCl)c(Cl)n3c2cc1C`, the TGI came to 5.57 µM in the assay with HL-60(TB) leukemia; 5.91 µM in the assay on HT29 colon; 14.4 µM in the assay on KM12 colon; 3.66 µM in the assay on MDA-MB-231 breast; 6.95 µM in the assay on MOLT-4 leukemia; 8.17 µM in the assay on NCI-H226 lung. Moreover, the TGI in the assay on SF-268 CNS was 3.76 µM; in the assay with SN12C renal it was 3.63 µM; with T-47D breast, 8.9 µM; in the assay with UACC-257 melanoma, 5.02 µM.
`COc1cc2c(cc1OC)C(Cl)C(c1ccc(Br)cc1)=C2Cl` (stereo unspecified): the TGI is over 67.3 µM in the assay with HL-60(TB) leukemia; 28.5 µM with HT29 colon; 34.6 µM in the assay with KM12 colon; 21.6 µM with MDA-MB-231 breast; 49.2 µM with MOLT-4 leukemia; over 55.1 µM in the assay on NCI-H226 lung. Also, the TGI in the assay on SF-268 CNS turned out to be 29.4 µM; in the assay with SN12C renal, 25.4 µM; with T-47D breast it was 15.1 µM; in the assay on UACC-257 melanoma, 31.6 µM.
In the case of `C[C@]12CC[C@H]3[C@@H](CC[C@]4(O)C[C@@H](O)CC[C@]34C=O)[C@@]1(O)CC[C@@H]2C1=CC(=O)OC1`, the TGI is 47.6 µM in the assay on HL-60(TB) leukemia; 2.03 µM in the assay with HT29 colon; 6.66 µM in the assay with KM12 colon; over 29.6 µM with MDA-MB-231 breast; 0.907 µM in the assay on MOLT-4 leukemia; 2.69 µM with NCI-H226 lung. In addition, the TGI in the assay on SF-268 CNS was found to be 2 µM; in the assay with SN12C renal, 1.8 µM; with T-47D breast, 5.03 µM; in the assay on UACC-257 melanoma, 2.5 µM.
Regarding `COc1cc2c(cc1OCC(=O)Nc1ccc(Cl)cc1C(=O)c1ccccc1Cl)N=CC1CCCN1C2=O` (stereo unspecified), the GI50 is 16.3 µM in the assay with HL-60(TB) leukemia; 11.9 µM in the assay on HT29 colon; 11.8 µM in the assay with KM12 colon; 10.7 µM in the assay on MDA-MB-231 breast; 4.44 µM in the assay with MOLT-4 leukemia; 17.6 µM in the assay on NCI-H226 lung. Moreover, the GI50 with SF-268 CNS was 12.9 µM; in the assay with SN12C renal it was 13.8 µM; with T-47D breast, 5.21 µM; in the assay with UACC-257 melanoma, 16.6 µM. The TGI in the assay with HL-60(TB) leukemia came to 56.2 µM; in the assay with HT29 colon, 34.2 µM; in the assay on KM12 colon it was 26 µM; with MDA-MB-231 breast it was 25.7 µM; in the assay on MOLT-4 leukemia, 28.2 µM; with NCI-H226 lung, 34.3 µM. For the same compound, the TGI with SF-268 CNS worked out at 33 µM; in the assay with SN12C renal it was 27.8 µM; in the assay with T-47D breast it was 22.2 µM; with UACC-257 melanoma, 30.2 µM.
On to `CC(=O)OC1CC2(C)C(=CC1C1SCCS1)CCC1C2CCC2(C)C(OC(C)=O)CCC12` (stereo unspecified), for which the TGI in the assay with HL-60(TB) leukemia, in the assay on HT29 colon, with KM12 colon, in the assay with MDA-MB-231 breast, in the assay with MOLT-4 leukemia and in the assay on NCI-H226 lung was over 100 µM in each case. Besides, the TGI with SF-268 CNS, in the assay on SN12C renal, with T-47D breast and in the assay with UACC-257 melanoma was over 100 µM throughout.
Turning to `Cc1[nH]nc(C(F)(F)F)c1Cc1sc2c(c1C(=O)N1C[C@](C)(O)CO1)c(=O)n(C)c(=O)n2C(C)C`, the GI50 in the assay on HL-60(TB) leukemia, in the assay with HT29 colon, with KM12 colon, with MDA-MB-231 breast, with MOLT-4 leukemia and with NCI-H226 lung was over 100 µM in each case. The GI50 in the assay on SF-268 CNS, in the assay on SN12C renal and with T-47D breast was over 100 µM each time. For the same compound, the TGI with HL-60(TB) leukemia, in the assay on HT29 colon, in the assay on KM12 colon, in the assay on MDA-MB-231 breast, with MOLT-4 leukemia and with NCI-H226 lung was over 100 µM throughout. The TGI with SF-268 CNS, with SN12C renal and in the assay on T-47D breast was over 100 µM throughout.
Turning to `COC(=O)C1=C(C)NC(C)=C(C(=O)OC)C1c1cccc(/[N+]([O-])=C/c2ccccc2)c1`, the TGI is 71 µM with HL-60(TB) leukemia; 87.4 µM in the assay with HT29 colon; over 100 µM with KM12 colon; 32 µM in the assay on MDA-MB-231 breast; 68 µM with MOLT-4 leukemia; over 100 µM with NCI-H226 lung. For the same compound, the results for the TGI in the assay on SF-268 CNS, in the assay on T-47D breast and in the assay on UACC-257 melanoma were over 100 µM, 41.6 µM and 40.5 µM, respectively.
On to `COc1cccc(N2CC(O)=C(c3nc4ccccc4s3)C2=N)c1`, for which the GI50 is 0.26 µM in the assay with HL-60(TB) leukemia; 0.252 µM with HT29 colon; 0.234 µM with KM12 colon; 0.359 µM in the assay with MDA-MB-231 breast; 0.166 µM in the assay on MOLT-4 leukemia; 7.21 µM in the assay on NCI-H226 lung. The GI50 in the assay with SF-268 CNS is 1.51 µM; in the assay on SN12C renal, 0.379 µM; in the assay on T-47D breast, 46.5 µM. For the same compound, the TGI in the assay on HL-60(TB) leukemia is over 100 µM; in the assay on HT29 colon, over 39.3 µM; with KM12 colon it was over 100 µM; in the assay on MDA-MB-231 breast, 3.42 µM; in the assay with MOLT-4 leukemia, over 100 µM; in the assay on NCI-H226 lung it was over 100 µM. Also, the TGI in the assay with SF-268 CNS was over 94.5 µM; with SN12C renal it was 5.63 µM; with T-47D breast, over 100 µM.
With `CN1C(=O)N(C)C2C1NC(=S)N2/N=C/C=C/c1ccccc1[N+](=O)[O-]` (stereo unspecified), the GI50 is 0.414 µM in the assay with HL-60(TB) leukemia; 0.774 µM in the assay with KM12 colon; 5.02 µM in the assay with MDA-MB-231 breast; 0.992 µM in the assay on MOLT-4 leukemia; 17.5 µM in the assay with NCI-H226 lung; 2.67 µM in the assay with SF-268 CNS. In addition, the values for the GI50 with SN12C renal, in the assay on T-47D breast and in the assay on UACC-257 melanoma were 6.82 µM, over 100 µM and over 100 µM, respectively. The TGI in the assay on HL-60(TB) leukemia was 2.8 µM; in the assay with KM12 colon it was over 100 µM; with MDA-MB-231 breast, over 100 µM; with MOLT-4 leukemia, over 100 µM; in the assay with NCI-H226 lung, over 100 µM; in the assay on SF-268 CNS, over 100 µM. The TGI in the assay with SN12C renal, in the assay on T-47D breast and in the assay on UACC-257 melanoma was over 100 µM in each case.
Regarding `Cc1ccsc1C(NC(=O)c1ccccc1)c1cc(Cl)c2cccnc2c1O` (stereo unspecified), the GI50 in the assay with HL-60(TB) leukemia is 0.808 µM; in the assay with HT29 colon it was 0.548 µM; in the assay on KM12 colon, 0.493 µM; in the assay with MDA-MB-231 breast, 0.675 µM; in the assay with MOLT-4 leukemia it was 0.622 µM; with NCI-H226 lung, 1.4 µM. In addition, the GI50 was 0.6 µM with SF-268 CNS, 0.971 µM in the assay with SN12C renal and 0.426 µM in the assay on T-47D breast. Further, the TGI in the assay on HL-60(TB) leukemia stood at 5.07 µM; in the assay on HT29 colon it was 20.7 µM; in the assay on KM12 colon it was 16 µM; in the assay on MDA-MB-231 breast it was 18.7 µM; in the assay with MOLT-4 leukemia, 34.6 µM; in the assay with NCI-H226 lung it was 7.35 µM. For the same compound, the TGI with SF-268 CNS turned out to be 12.1 µM; in the assay with SN12C renal, 14.7 µM; in the assay on T-47D breast, 7.3 µM.
